From patent publication US7053046B2 (priority 2001, dated 2006)

Legend:
Type in all cases: cell-based, human
VEGF C = test system: VEGF C
VEGF A = test system: VEGF A
VEGF B = test system: VEGF B

Compound | VEGF C gene expression ratio treated/untreated (up) (VEGF C) | VEGF A gene expression ratio treated/untreated (up) (VEGF A) | VEGF B gene expression ratio treated/untreated (up) (VEGF B)
[Cl-].[Cl-].[Co+2] [CoCl2] | up 3.0 x | up 3.4 x | up 1.4 x
YGRKKRRQRRR-DLDLEMLA(Hyp)YIPMDDDFQL [ODD peptide] | up 4.4 x | up 3.2 x | up 1.4 x
